Experimental data published in patent publication US4560509A, “Antibiotic A39079 factor S-1” (Eli Lilly and Company, priority 1983, dated 1985).
≈ marks a conversion by molar mass, not a printed value. Positions of bridges follow the written chain, without caps; N, C: chain ends. Non-standard residues stand in square brackets, D forms with d. Residues, ends and D or L forms follow the SMILES beside them. *: point of attachment. Ileψ(thiazoline)Cys = CC[C@H](C)[C@H](N)C1=N[C@H](C(=O)*)CS1; dOrn = NCCC[C@@H](N)C(=O)O

Key:
Type in all cases: cell-based
[1] = tested on: Streptomyces spheroides NRRL 15600; experiment: antibiotic sensitivity of the producing culture
From the text: In classifying the microorganism as a new strain of S. spheroides, the methods recommended by the International Streptomyces Project (ISP) for the characterization of Streptomyces species [E. B. Shirling and D. Gottlieb, "Methods of Characterization of Streptomyces species," Int. J. Syst. Bacteriol. 16(3), 313-340 (1966)] were followed along with certain supplementary tests.

Escherichia coli = experiment: antibiotic activity of column fractions
Method: (§1) Whole broth (100 L), prepared in a manner similar to that of Example 1, Section B, was filtered using a filter aid (Hyflo Supercel, Johns-ManvilleCorp.). The filtered broth (86 L) is adjusted to pH 2 with 5N hydrochloric acid and then is extracted twice with ethyl acetate (1/2 volumes). The ethyl acetate extracts are concentrated under vacuum to give an oily residue (49 g). This residue is dissolved in methanol and placed on a 10-L Diaion HP-20 column (Mitsubishi Industries). The column is washed with water (500 ml) and eluted with acetonitrile:water (30 L of 3:7 and 50 L of 3:2) and acetonitrile (20 L). Elution is carried out at a rate of 100 ml/min., collecting 4-liter fractions. Fractions are tested for antibiotic activity against Micrococcus luteus, Escherichia coli, and Neurospora crassa.

[2] = tested on: Citrobacter freundii CF17; experiment: standard agar-dilution MIC assay; conditions: Citrobacter freundii, CF17
From the text: (§2) Table V summarizes the minimal inhibitory concentrations (MIC) at which factor S-1 inhibits certain organisms as determined by standard agar-dilution assays. In Table V, the activity of factor S-1 is compared with that of rifampin.

[3] = tested on: Enterobacter aerogenes C32; experiment: standard agar-dilution MIC assay; conditions: Klebsiella aerogenes, C32
From the text: as §2

[4] = tested on: Enterobacter aerogenes EB17; experiment: standard agar-dilution MIC assay; conditions: Klebsiella aerogenes, EB17
From the text: as §2

[5] = tested on: Enterobacter cloacae 265A; experiment: standard agar-dilution MIC assay; conditions: Enterobacter cloacae, 265A
From the text: as §2

Enterobacter cloacae EB5 = experiment: standard agar-dilution MIC assay; conditions: Enterobacter cloacae, EB5
From the text: as §2

Escherichia coli EC14 = experiment: standard agar-dilution MIC assay
From the text: as §2

Escherichia coli N10 = experiment: standard agar-dilution MIC assay
From the text: as §2

Escherichia coli TEM = experiment: standard agar-dilution MIC assay
From the text: as §2

[6] = tested on: Klebsiella pneumoniae KAE; experiment: standard agar-dilution MIC assay; conditions: Klebsiella pneumoniae
From the text: as §2

[7] = tested on: Klebsiella pneumoniae X26; experiment: standard agar-dilution MIC assay; conditions: Klebsiella pneumoniae, X26
From the text: as §2

[8] = tested on: Klebsiella pneumoniae X68; experiment: standard agar-dilution MIC assay; conditions: Klebsiella pneumoniae, X68
From the text: as §2

Proteus inconstans PR33 = experiment: standard agar-dilution MIC assay; conditions: Providencia alcalifaciens, PR33
From the text: as §2

Proteus morganii PR15 = experiment: standard agar-dilution MIC assay; conditions: Morganella morganii, PR15
From the text: as §2

Proteus rettgeri C24 = experiment: standard agar-dilution MIC assay; conditions: Providencia rettgeri, C24
From the text: as §2

[9] = tested on: Pseudomonas aeruginosa Ps18; experiment: standard agar-dilution MIC assay
From the text: as §2

[10] = tested on: Pseudomonas aeruginosa X239; experiment: standard agar-dilution MIC assay; conditions: Pseudomonas aeruginosa, X239
From the text: as §2

[11] = tested on: Pseudomonas aeruginosa X528; experiment: standard agar-dilution MIC assay; conditions: Pseudomonas aeruginosa, X528
From the text: as §2

Salmonella typhi 1335 = experiment: standard agar-dilution MIC assay; conditions: Salmonella enterica
From the text: as §2

Salmonella typhi X514 = experiment: standard agar-dilution MIC assay; conditions: Salmonella enterica
From the text: as §2

Serratia marcescens SE3 = experiment: standard agar-dilution MIC assay; conditions: Serratia marcescens, SE3
From the text: as §2

Serratia marcescens X99 = experiment: standard agar-dilution MIC assay; conditions: Serratia marcescens, X99
From the text: as §2

Shigella sonnei N9 = experiment: standard agar-dilution MIC assay
From the text: as §2

[12] = tested on: Staphylococcus aureus NRRL B313; experiment: standard agar-dilution MIC assay; conditions: Staphylococcus aureus, NRRLB313
From the text: as §2

[13] = tested on: Staphylococcus aureus S13E; experiment: standard agar-dilution MIC assay
From the text: as §2

[14] = tested on: Staphylococcus aureus V41; experiment: standard agar-dilution MIC assay; conditions: Staphylococcus aureus, V41
From the text: as §2

[15] = tested on: Staphylococcus aureus X400; experiment: standard agar-dilution MIC assay; conditions: Staphylococcus aureus, X400
From the text: as §2

[16] = tested on: Staphylococcus epidermidis 222; experiment: standard agar-dilution MIC assay; conditions: Staphylococcus epidermidis, 222
From the text: as §2

[17] = tested on: Staphylococcus epidermidis EPI1; experiment: standard agar-dilution MIC assay
From the text: as §2

[18] = tested on: Streptococcus faecium ATCC 9790; experiment: standard agar-dilution MIC assay; conditions: Enterococcus faecium, ATCC9790
From the text: as §2

[19] = tested on: Streptococcus pneumoniae Park 1; experiment: standard agar-dilution MIC assay; conditions: Streptococcus pneumoniae, PARK1
From the text: as §2

[20] = tested on: Streptococcus pyogenes C203; experiment: standard agar-dilution MIC assay
From the text: as §2

[21] = tested on: Streptococcus sp. group D 9960; experiment: standard agar-dilution MIC assay; conditions: Streptococcus
From the text: as §2

Neurospora crassa = experiment: antibiotic activity of column fractions
Method: as §1

Molecule: [H]/N=C(/N)N[C@H]1[C@H](O)[C@@H](O)[C@H](O[C@@H]2O[C@@H](C)[C@](O)(C=O)[C@H]2O[C@@H]2O[C@@H](CO)[C@H](O)[C@@H](O)[C@@H]2NC)[C@@H](N/C(N)=N\[H])[C@@H]1O [streptomycin]
- resistance / sensitivity of the culture to antibiotic [1]: sensitive

Molecule: CCn1cc(C(=O)O)c(=O)c2ccc(C)nc21 [nalidixic acid]
- resistance / sensitivity of the culture to antibiotic [1]: resistant

Molecule: polymyxin B
- resistance / sensitivity of the culture to antibiotic [1]: sensitive

Molecule: CO[C@@H]1[C@@H](OC(N)=O)[C@@H](O)[C@H](Oc2ccc3c(O)c(NC(=O)c4ccc(O)c(CC=C(C)C)c4)c(=O)oc3c2C)OC1(C)C [novobiocin]
- resistance / sensitivity of the culture to antibiotic [1]: sensitive

Molecule: CCC[C@@H]1C[C@@H](C(=O)N[C@@H]([C@H]2O[C@H](SC)[C@H](O)[C@@H](O)[C@H]2O)[C@@H](C)O)N(C)C1 [lincomycin]
- resistance / sensitivity of the culture to antibiotic [1]: resistant

Molecule: O=C(N[C@H](CO)[C@H](O)c1ccc([N+](=O)[O-])cc1)C(Cl)Cl [Chloramphenicol]
- resistance / sensitivity of the culture to antibiotic [1]: resistant
- activity against E. coli (Escherichia coli): active

Molecule: CC[C@H]1OC(=O)[C@H](C)[C@@H](O[C@H]2C[C@@](C)(OC)[C@@H](O)[C@H](C)O2)[C@H](C)[C@@H](O[C@@H]2O[C@H](C)C[C@H](N(C)C)[C@H]2O)[C@](C)(O)C[C@@H](C)C(=O)[C@H](C)[C@@H](O)[C@]1(C)O [erythromycin]
- resistance / sensitivity of the culture to antibiotic [1]: sensitive

Molecule: CN[C@H](CC(C)C)C(=O)N[C@H]1C(=O)N[C@@H](CC(N)=O)C(=O)N[C@H]2C(=O)N[C@H]3C(=O)N[C@H](C(=O)N[C@H](C(=O)O)c4cc(O)cc(O)c4-c4cc3ccc4O)[C@H](O)c3ccc(c(Cl)c3)Oc3cc2cc(c3O[C@@H]2O[C@H](CO)[C@@H](O)[C@H](O)[C@H]2O[C@H]2C[C@](C)(N)[C@H](O)[C@H](C)O2)Oc2ccc(cc2Cl)[C@H]1O [vancomycin]
- resistance / sensitivity of the culture to antibiotic [1]: sensitive

Molecule: CC(=O)OCC1=C(C(=O)O)N2C(=O)[C@@H](NC(=O)Cc3cccs3)[C@H]2SC1 [cephalothin]
- resistance / sensitivity of the culture to antibiotic [1]: sensitive

Molecule: CO[C@H]1/C=C/O[C@@]2(C)Oc3c(C)c(O)c4c(O)c(c(/C=N/N5CCN(C)CC5)c(O)c4c3C2=O)NC(=O)/C(C)=C\C=C\[C@H](C)[C@H](O)[C@@H](C)[C@@H](O)[C@@H](C)[C@H](OC(C)=O)[C@@H]1C [Rifampin, reference compound]
- MIC [2]: 16 µg/mL (≈ 19.4 µM)
- MIC [3]: 32 µg/mL (≈ 38.9 µM)
- MIC [4]: 32 µg/mL (≈ 38.9 µM)
- MIC [5]: 32 µg/mL (≈ 38.9 µM)
- MIC (Enterobacter cloacae EB5): 32 µg/mL (≈ 38.9 µM)
- MIC (Escherichia coli EC14): 16 µg/mL (≈ 19.4 µM)
- MIC (Escherichia coli N10): 16 µg/mL (≈ 19.4 µM)
- MIC (Escherichia coli TEM): 128 µg/mL (≈ 156 µM)
- MIC [6]: 32 µg/mL (≈ 38.9 µM)
- MIC [7]: 16 µg/mL (≈ 19.4 µM)
- MIC [8]: 16 µg/mL (≈ 19.4 µM)
- MIC (Proteus inconstans PR33): 16 µg/mL (≈ 19.4 µM)
- MIC (Proteus morganii PR15): 32 µg/mL (≈ 38.9 µM)
- MIC (Proteus rettgeri C24): 8 µg/mL (≈ 9.72 µM)
- MIC [9]: > 128 µg/mL
- MIC [10]: 16 µg/mL (≈ 19.4 µM)
- MIC [11]: 16 µg/mL (≈ 19.4 µM)
- MIC (Salmonella typhi 1335): 16 µg/mL (≈ 19.4 µM)
- MIC (Salmonella typhi X514): 16 µg/mL (≈ 19.4 µM)
- MIC (Serratia marcescens SE3): 64 µg/mL (≈ 77.8 µM)
- MIC (Serratia marcescens X99): 32 µg/mL (≈ 38.9 µM)
- MIC (Shigella sonnei N9): 16 µg/mL (≈ 19.4 µM)
- MIC [12]: 0.03 µg/mL (≈ 0.0365 µM)
- MIC [13]: 0.03 µg/mL (≈ 0.0365 µM)
- MIC [14]: 0.015 µg/mL (≈ 0.0182 µM)
- MIC [15]: 0.06 µg/mL (≈ 0.0729 µM)
- MIC [16]: 0.06 µg/mL (≈ 0.0729 µM)
- MIC [17]: 0.06 µg/mL (≈ 0.0729 µM)
- MIC [18]: 2 µg/mL (≈ 2.43 µM)
- MIC [19]: 0.125 µg/mL (≈ 0.152 µM)
- MIC [20]: 0.25 µg/mL (≈ 0.304 µM)
- MIC [21]: 2 µg/mL (≈ 2.43 µM)
- resistance / sensitivity of the culture to antibiotic [1]: resistant

Molecule: NC[C@@H]1O[C@H](O[C@H]2[C@@H](O)[C@H](O[C@@H]3[C@@H](O)[C@H](N)C[C@H](N)[C@H]3O[C@H]3O[C@H](CN)[C@@H](O)[C@H](O)[C@H]3N)O[C@@H]2CO)[C@H](N)[C@@H](O)[C@@H]1O [neomycin]
- resistance / sensitivity of the culture to antibiotic [1]: sensitive

Molecule: Nc1ccc(S(=O)(=O)Nc2ncccn2)cc1 [sulfadiazine]
- resistance / sensitivity of the culture to antibiotic [1]: sensitive

Molecule: CC1(C)S[C@@H]2[C@H](NC(=O)Cc3ccccc3)C(=O)N2[C@H]1C(=O)O [penicillin G]
- resistance / sensitivity of the culture to antibiotic [1]: sensitive

Molecule: gentamicin
- resistance / sensitivity of the culture to antibiotic [1]: sensitive

Molecule: CC[C@H](C)[C@H](N)C1=N[C@H](C(=O)N[C@@H](CC(C)C)C(=O)N[C@H](CCC(=O)O)C(=O)N[C@H](C(=O)N[C@H]2CCCCNC(=O)[C@H](CC(N)=O)NC(=O)[C@@H](CC(=O)O)NC(=O)[C@H](Cc3cnc[nH]3)NC(=O)[C@@H](Cc3ccccc3)NC(=O)[C@H]([C@@H](C)CC)NC(=O)[C@@H](CCCN)NC2=O)[C@@H](C)CC)CS1 [bacitracin] ({Ileψ(thiazoline)Cys}-L[dE]IK[dOrn]I[dF]H[dD]N; lactam 4-C)
- resistance / sensitivity of the culture to antibiotic [1]: sensitive

Molecule: C[C@@H]1C[C@@H]([C@H](O)CC2CC(=O)NC(=O)C2)C(=O)[C@@H](C)C1 [Cycloheximide]
- activity against N. crassa (Neurospora crassa): active

Molecule: CN(C)[C@@H]1C(O)=C(C(N)=O)C(=O)[C@@]2(O)C(O)=C3C(=O)c4c(O)cccc4[C@@](C)(O)[C@H]3C[C@@H]12 [tetracycline]
- resistance / sensitivity of the culture to antibiotic [1]: sensitive
